# PMC8428568, “Discovery of re-purposed drugs that slow SARS-CoV-2 replication in human cells” (PLoS Pathogens, 2021)
# Where a name gives a salt, the structure may show the parent alone. Read-outs that look alike come from different tables or passages of the source.
# Experiments:
# recombinant NLuc = format: biochemical
# [1] = tested on: SARS-CoV-2-ΔOrf7a-NLuc virus; test: microbe, parasite or virus in culture; format: cell-based
# [2] = recombinant NLuc activity relative to DMSO
# [3] = recombinant NLuc, first read column
# [4] = recombinant NLuc, fourth read column
# [5] = recombinant NLuc, third read column
Structure (SMILES),Relative Recombinant NLUC (recombinant NLuc; [2]),Reads Counts per second (read 1) (recombinant NLuc; [3]) [Counts per second],Reads Counts per second (read 4) (recombinant NLuc; [4]) [Counts per second],Reads Counts per second (read 2) (recombinant NLuc; recombinant NLuc) [Counts per second],Reads Counts per second (read 3) (recombinant NLuc; [5]) [Counts per second],% activity in Vero 100PFU screen [1] [%],"activity at 10 µM ([1]; Severe acute respiratory syndrome coronavirus 2, Vero, 72 h, […], 1 = untreated, 0 = total inhibition, read-out: Mean relative luminescence (n=4)) [%]",Reads Counts per second (read 1) (recombinant NLuc) [Counts per second],Reads Counts per second (read 3) (recombinant NLuc) [Counts per second],Reads Counts per second (read 4) (recombinant NLuc) [Counts per second],Relative Recombinant NLUC (recombinant NLuc)
"C=CCNC1=C2C[C@@H](C)C[C@H](OC)[C@H](O)[C@@H](C)/C=C(\C)[C@H](OC(N)=O)[C@@H](OC)/C=C\C=C(/C)C(=O)NC(=CC1=O)C2=O [17-AAG (KOS953), 17-AAG]",0.9121,339450,348179,347084,343744,209,–,–,–,–,–
OB1OCc2cc(F)ccc21 [AN-2690],0.8709,329173,324160,329953,332892,171,–,–,–,–,–
CC(C)c1cc(C(=O)N2Cc3ccc(CN4CCN(C)CC4)cc3C2)c(O)cc1O [AT13387],0.7978,289397,303901,302902,309451,191,–,–,–,–,–
Cn1c(=O)cc(N2CCC[C@@H](N)C2)n(Cc2ccccc2C#N)c1=O [Alogliptin Benzoate],0.863,316906,323679,332493,331161,166,–,–,–,–,–
Cc1[nH]cnc1CN1CCc2c(c3ccccc3n2C)C1=O [Alosetron Hydrochloride],0.8898,328498,339698,338671,337783,177,–,–,–,–,–
C[C@H]1CN(C[C@H](Cc2ccccc2)C(=O)NCC(=O)O)CC[C@@]1(C)c1cccc(O)c1 [Alvimopan],0.9202,338215,352328,350063,350082,169,–,–,–,–,–
"CC[C@@H]1/C=C(\C)C[C@H](C)C[C@H](OC)[C@H]2O[C@@](O)(C(=O)C(=O)N3CCCC[C@H]3C(=O)O[C@H](/C(C)=C/[C@@H]3CC[C@@H](O)[C@H](OC)C3)[C@H](C)[C@@H](O)CC1=O)[C@H](C)C[C@@H]2OC [Ascomycin(FK 520), Ascomycin]",0.8402,312887,314498,325360,316950,171,–,–,–,–,–
O=C(O)[C@H]1O[C@@H](Oc2cc3oc(-c4ccccc4)cc(=O)c3c(O)c2O)[C@H](O)[C@@H](O)[C@@H]1O [Baicalin],0.9439,353023,357276,358945,357158,164,–,–,–,–,–
CCS(=O)(=O)N1CC(CC#N)(n2cc(-c3ncnc4[nH]ccc34)cn2)C1 [Baricitinib phosphate],0.9095,337511,349331,341167,346435,199,–,–,–,–,–
CC(C)(C)NC(=O)N[C@H](C(=O)N1C[C@H]2[C@@H]([C@H]1C(=O)NC(CC1CCC1)C(=O)C(N)=O)C2(C)C)C(C)(C)C (some centres unmarked) [Boceprevir],0.9177,341877,349417,348889,346623,178,–,–,–,–,–
O=C(O)/C=C/c1ccc(O)c(O)c1 [Caffeic acid],1.054,390077,403178,–,399891,173,–,–,–,–,–
O=C(O)COCCN1CCN(C(c2ccccc2)c2ccc(Cl)cc2)CC1 (centres unmarked) [Cetirizine],0.4486,170134,171706,–,168670,161,–,–,–,–,–
O=c1c(-c2ccc(O)cc2)coc2cc(O)ccc12 [Daidzein],0.9154,339091,346126,–,350216,161,–,–,–,–,–
CC(C)(C)c1ccc(C(=O)CCCN2CCC(OC(c3ccccc3)c3ccccc3)CC2)cc1 [Ebastine],–,323732,326603,–,324560,–,0.793,–,–,–,–
O=S(=O)(O)c1cc(O)ccc1O [Ethamsylate],1.029,388357,386776,–,391647,167,–,–,–,–,–
CNCCC(Oc1ccc(C(F)(F)F)cc1)c1ccccc1.Cl (centres unmarked) [Fluoxetine HCl],–,317425,307707,–,314163,2.12,–,–,–,–,–
NC(=O)CC[C@H](N)C(=O)O [L-Glutamine],0.9419,349150,350740,–,361792,204,–,–,–,–,–
N[C@@H](Cc1ccc(O)c(O)c1)C(=O)O [Levodopa],0.839,304150,316577,–,322065,233,–,–,–,–,–
O=C([O-])CC(O)(CC(=O)[O-])C(=O)[O-].[Li+].[Li+].[Li+] [Lithium Citrate],0.9217,343238,343490,–,350985,205,–,–,–,–,–
C[C@H](CCC(=O)O)[C@H]1CC[C@H]2[C@@H]3CC[C@@H]4C[C@H](O)CC[C@]4(C)[C@H]3CC[C@]12C [Lithocholic Acid],0.9342,350340,353302,–,350189,205,–,–,–,–,–
"Cc1cnc(NC(=O)C2=C(O)c3ccccc3S(=O)(=O)N2C)s1 [Meloxicam (Mobic), Meloxicam]",0.824,308460,312953,–,309204,178,–,–,–,–,–
C[N+]1(C)CCCC(OC(=O)C(O)(c2ccccc2)c2ccccc2)C1 (centres unmarked) [Mepenzolate Bromide],–,–,–,–,–,175,–,330221,339233,336213,0.8896
C[C@](N)(Cc1ccc(O)c(O)c1)C(=O)O [Methyldopa],0.9666,361429,367357,–,364798,175,–,–,–,–,–
NC(=O)c1ccc[n+]([C@@H]2O[C@H](COP(=O)([O-])OP(=O)(O)OC[C@H]3O[C@@H](n4cnc5c(N)ncnc54)[C@H](O)[C@@H]3O)[C@@H](O)[C@H]2O)c1 [NAD+],1.016,385544,376264,–,386401,164,–,–,–,–,–
Cc1ccnc2c1NC(=O)c1cccnc1N2C1CC1 [Nevirapine],0.9932,371882,373316,–,379254,187,–,–,–,–,–
COc1ccc2c(c1OC)C(=O)O[C@@H]2[C@H]1c2c(cc3c(c2OC)OCO3)CCN1C [Noscapine HCl],0.9502,358232,354994,–,362883,213,–,–,–,–,–
CN(C(=O)CN(CCO)CC(=O)N(C)C(C)(C)Cc1ccccc1)C(C)(C)Cc1ccccc1 [Oxethazaine],0.8736,330534,321724,–,331517,167,–,–,–,–,–
